We go through 46 compounds from patent US11542233B2, “Compounds, compositions and methods of use” (Aquinnah Pharmaceuticals, Inc., priority 2016, dated 2023).

Some results are limits rather than exact numbers.

The test system of the assay is TDP-43 aggregation in PC12 cells stably expressing GFP-tagged mutant TDP-43 (TDP-43^Q33IK::eGFP). The experiment in a line: In vitro efficacy assay: inhibition of TDP-43 inclusions, concentration-response, fluorescence microscopy. The class given is cell-based. The note with it: Rattus norvegicus, PC-12, PC12 cells, 1 hour pre-treatment, 15 μM sodium arsenite for 23 hours, 10-point dose response curve. Summed up: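 PC12 cells stably expressing TDP-43^Q33IK::eGFP pre-treated 1 h with compound, then stressed with 15 μM sodium arsenite for 23 h. Fluorescence microscopy gave the fraction of GFP-positive cells bearing aggregates; IC50 from concentration-response, reported in bins: A <100 nM, B 100–500 nM, C 500 nM–2 μM, D >2 μM.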
As for `CCN(C(=O)c1nc2c(OC)cccc2[nH]1)[C@H]1CCC[C@@H](NCc2ccccc2)C1` [Compound 484], the IC50 (in general, the concentration that gives 50% inhibition) is under 100 nM.

For the compound `CCN(C(=O)c1nc2cc(C#N)ccc2[nH]1)[C@H]1CCC[C@@H](NCc2ccccc2)C1` [Compound 485], the IC50 was under 100 nM.

Consider `CCN(C(=O)c1cc2ncncc2[nH]1)[C@H]1CCC[C@@H](NCc2ccccc2)C1` [Compound 486], for which the IC50 was 100 to 500 nM.

`CCN(C(=O)c1nc2ccccc2[nH]1)[C@H]1CCC[C@@H](NCc2ccc3ncoc3c2)C1` [Compound 487, N-((1S,3R)-3-((benzo[d]oxazol-6-ylmethyl)amino)cyclohexyl)-N-ethyl-1H-benzo[d]imidazole-2-carboxamide]: the IC50 was under 100 nM.

In the case of `CCN(C(=O)c1nc2ccccc2[nH]1)[C@H]1CCC[C@@H](NCc2nc3ccccc3s2)C1` [Compound 488], the IC50 is under 100 nM.

Turning to `CCN(C(=O)c1nc2ccccc2[nH]1)[C@H]1CCC[C@@H](NCc2ccc3ocnc3c2)C1` [Compound 489], the IC50 is under 100 nM.

Take `CCN(C(=O)c1nc2ccccc2[nH]1)[C@H]1CCC[C@@H](NCc2cc3ccccc3s2)C1` [Compound 490]: the IC50 is under 100 nM.

With `CCN(C(=O)c1nc2ccccc2[nH]1)[C@H]1CCC[C@@H](NCc2cc3ncccc3o2)C1` [Compound 491], the IC50 is under 100 nM.

Take `CCN(C(=O)c1nc2ccccc2[nH]1)[C@H]1CCC[C@@H](NCc2ccc3cncn3c2)C1` [Compound 492]: the IC50 was under 100 nM.

As to `CCN(C(=O)c1nc2ccccc2[nH]1)[C@H]1CCC[C@@H](NCc2cc3ccccn3c2)C1` [Compound 493], the IC50 was under 100 nM.

Take `CCN(C(=O)c1nc2ccccc2[nH]1)[C@H]1CCC[C@@H](NCc2cn3ccccc3n2)C1` [Compound 494, N-ethyl-N-((1S,3R)-3-((imidazo[1,2-a]pyridin-2-ylmethyl)amino)cyclohexyl)-1H-benzo[d]imidazole-2-carboxamide]: the IC50 is under 100 nM.

For `CCN(C(=O)c1nc2ccccc2[nH]1)[C@H]1CCC[C@@H](NCc2cc(C3CC3)no2)C1` [Compound 495, N-((1S,3R)-3-(((3-cyclopropylisoxazol-5-yl)methyl)amino)cyclohexyl)-N-ethyl-1H-benzo[d]imidazole-2-carboxamide], the IC50 is under 100 nM.

On to `CCN(C(=O)c1cc2ccccc2[nH]1)[C@H]1CCC[C@@H](NCc2oc3ccccc3c2C#N)C1` [Compound 496], for which the IC50 is under 100 nM.

On to `CCN(C(=O)c1nc2ccccc2[nH]1)[C@H]1CCC[C@@H](NCc2oc3ccccc3c2C#N)C1` [Compound 497], for which the IC50 was under 100 nM.

Take `CCN(C(=O)c1cc2c(OC)cccc2[nH]1)[C@H]1CCC[C@@H](NCc2oc3ccccc3c2C#N)C1` [Compound 498]: the IC50 is under 100 nM.

Take `CCN(C(=O)c1cc2ccccc2[nH]1)[C@H]1CCC[C@@H](Nc2nnc(C3CC3)s2)C1` [Compound 499, N-((1S,3R)-3-((5-cyclopropyl-1,3,4-thiadiazol-2-yl)amino)cyclohexyl)-N-ethyl-1H-indole-2-carboxamide]: the IC50 was over 2000 nM.

Regarding `CCN(C(=O)c1cc2ccccc2[nH]1)[C@H]1CCC[C@@H](Nc2nnc(C)s2)C1` [Compound 500], the half-maximal inhibitory concentration (IC50) was over 2000 nM.

For `CCN(C(=O)c1cc2ncccc2[nH]1)[C@H]1CCC[C@@H](Nc2ccccc2)C1` [Compound 501], the IC50 was over 2000 nM.

With `CCN(C(=O)c1cc2c([nH]1)CC(C)(C)OC2)[C@H]1CCC[C@@H](NCc2ccccc2)C1` [Compound 502, N-((1S,3R)-3-(benzylamino)cyclohexyl)-N-ethyl-6,6-dimethyl-1,4,6,7-tetrahydropyrano[4,3-b]pyrrole-2-carboxamide], the IC50 lay within 500 to 2000 nM.

As to `CCN(C(=O)c1cc2c([nH]1)CCOC2)[C@H]1CCC[C@@H](NCc2ccccc2)C1` [Compound 503], the IC50 fell in the range of 100 to 500 nM.

In the case of `CCN(C(=O)c1cc2ccccc2[nH]1)[C@H]1COC[C@@H](N[C@@H]2CCc3ccccc32)C1` [Compound 504, N-((3R,5S)-5-(((R)-2,3-dihydro-1H-inden-1-yl)amino)tetrahydro-2H-pyran-3-yl)-N-ethyl-1H-indole-2-carboxamide], the IC50 is under 100 nM.

On to `CCN(C(=O)c1cc2ccccc2[nH]1)[C@@H]1COC[C@H](N[C@@H]2CCc3ccccc32)C1` [Compound 505, N-((3S,5R)-5-(((R)-2,3-dihydro-1H-inden-1-yl)amino)tetrahydro-2H-pyran-3-yl)-N-ethyl-1H-indole-2-carboxamide], for which the IC50 is over 2000 nM.

Take `CCN(C(=O)c1cc2ccccc2[nH]1)[C@H]1COC[C@H](N[C@@H]2CCc3ccccc32)C1` [Compound 506, N-((3R,5R)-5-(((R)-2,3-dihydro-1H-inden-1-yl)amino)tetrahydro-2H-pyran-3-yl)-N-ethyl-1H-indole-2-carboxamide]: the IC50 was in the range of 500 to 2000 nM.

As for `CCN(C(=O)c1cc2ccccc2[nH]1)[C@@H]1COC[C@@H](N[C@@H]2CCc3ccccc32)C1` [Compound 507, N-((3S,5S)-5-(((R)-2,3-dihydro-1H-inden-1-yl)amino)tetrahydro-2H-pyran-3-yl)-N-ethyl-1H-indole-2-carboxamide], the IC50 was over 2000 nM.

In the case of `CCN(C(=O)c1cc2ccccc2[nH]1)C1COC[C@@H](N[C@H]2CCc3ccccc32)C1` (stereo partly shown) [Compound 508], the IC50 was over 2000 nM.

With `CCN(C(=O)c1cc2ccccc2[nH]1)C1CCC[C@H](N[C@H]2CCc3ccccc32)C1` (stereo partly shown) [Compound 509], the IC50 is over 2000 nM.

Turning to `CCN(C(=O)c1cc2c([nH]1)CCCO2)[C@H]1CCC[C@@H](NCc2ccccc2)C1` [Compound 511, N-((1S,3R)-3-(benzylamino)cyclohexyl)-N-ethyl-1,5,6,7-tetrahydropyrano[3,2-b]pyrrole-2-carboxamide], the IC50 lay within 100 to 500 nM.

As for `CCN(C(=O)c1cc2c([nH]1)CCCS2(=O)=O)[C@H]1CCC[C@@H](NCc2ccccc2)C1` [Compound 512, N-((1S,3R)-3-(benzylamino)cyclohexyl)-N-ethyl-1,5,6,7-tetrahydrothiopyrano[3,2-b]pyrrole-2-carboxamide 4,4-dioxide], the IC50 was in the range of 100 to 500 nM.

As to `CCN(C(=O)c1nc2ccccc2[nH]1)[C@H]1CCC[C@@H](NCc2nnc(C3CC3)o2)C1` [Compound 513, N-((1S,3R)-3-(((5-cyclopropyl-1,3,4-oxadiazol-2-yl)methyl)amino)cyclohexyl)-N-ethyl-1H-benzo[d]imidazole-2-carboxamide], the IC50 is 100 to 500 nM.

On to `CCN(C(=O)c1nc2ccccc2[nH]1)[C@H]1CCC[C@@H](NCc2ccc3cccn3c2)C1` [Compound 514, N-ethyl-N-((1S,3R)-3-((indolizin-6-ylmethyl)amino)cyclohexyl)-1H-benzo[d]imidazole-2-carboxamide], for which the IC50 was under 100 nM.

As for `CCN(C(=O)c1nc2ccccc2[nH]1)[C@H]1CCC[C@@H](NCc2cc(C3CC3)on2)C1` [Compound 515, N-((1S,3R)-3-(((5-cyclopropylisoxazol-3-yl)methyl)amino)cyclohexyl)-N-ethyl-1H-benzo[d]imidazole-2-carboxamide], the IC50 was under 100 nM.

For the compound `CCN(C(=O)c1nc2cc(C#N)ccc2[nH]1)[C@H]1CCC[C@@H](NCc2cccc(F)c2)C1` [Compound 516, 5-cyano-N-ethyl-N-((1S,3R)-3-((3-fluorobenzyl)amino)cyclohexyl)-1H-benzo[d]imidazole-2-carboxamide], the IC50 is under 100 nM.

Take `CCN(C(=O)c1nc2cc(C#N)ccc2[nH]1)[C@H]1CCC[C@@H](NCc2cc3ccccc3o2)C1` [Compound 517]: the IC50 is under 100 nM.

As to `CCN(C(=O)c1nc2cc(C#N)ccc2[nH]1)[C@H]1CCC[C@@H](NCc2oc3ccccc3c2C)C1` [Compound 518], the IC50 is under 100 nM.

Turning to `CCN(C(=O)c1nc2cc(C#N)ccc2[nH]1)[C@H]1CCC[C@@H](NCc2ccc(F)cc2)C1` [Compound 519], the IC50 was under 100 nM.

`CCN(C(=O)c1nc2cc(C#N)ccc2[nH]1)[C@H]1CCC[C@@H](NCc2oc3ccccc3c2C#N)C1` [Compound 520]: the half-inhibitory concentration (IC50) was under 100 nM.

As to `[2H]C([2H])(N[C@@H]1CCC[C@H](N(CC)C(=O)c2cc3ccccc3[nH]2)C1)c1ccccc1` [Compound 521, N-ethyl-N-((1S,3R)-3-((phenylmethyl-d2)amino)cyclohexyl)-1H-indole-2-carboxamide], the IC50 was under 100 nM.

For `[2H]C([2H])(N[C@@H]1CCC[C@H](N(CC)C(=O)c2nc3ccccc3[nH]2)C1)c1ccccc1` [Compound 522, N-ethyl-N-((1S,3R)-3-((phenylmethyl-d2)amino)cyclohexyl)-1H-benzo[d]imidazole-2-carboxamide], the IC50 is under 100 nM.

As to `CCN(C(=O)c1nc2cc(F)ccc2[nH]1)[C@H]1CCC[C@@H](NCc2cc3ccccc3o2)C1` [Compound 523], the IC50 is under 100 nM.

With `CCN(C(=O)c1nc2cc(F)ccc2[nH]1)[C@H]1CCC[C@@H](NCc2oc3ccccc3c2C)C1` [Compound 524], the IC50 was under 100 nM.

As for `CCN(C(=O)c1nc2cc(F)ccc2[nH]1)[C@H]1CCC[C@@H](NCc2cccc(F)c2)C1` [Compound 525], the IC50 is under 100 nM.

Take `CCN(C(=O)c1nc2cc(F)ccc2[nH]1)[C@H]1CCC[C@@H](NCc2ccc(F)cc2)C1` [Compound 526]: the half-inhibitory concentration (IC50) is under 100 nM.

Regarding `CCN(C(=O)c1nc2cc(F)ccc2[nH]1)[C@H]1CCC[C@@H](NCc2ccc(C#N)cc2)C1` [Compound 527], the IC50 was under 100 nM.

Consider `CCN(C(=O)c1nc2cc(F)ccc2[nH]1)[C@H]1CCC[C@@H](NCc2cccc(C#N)c2)C1` [Compound 528], for which the IC50 is under 100 nM.

Turning to `CCN(C(=O)c1nc2cc(C#N)ccc2[nH]1)[C@H]1CCC[C@@H](NCc2ccc3ocnc3c2)C1` [Compound 529], the IC50 is under 100 nM.

Regarding `CCN(C(=O)c1nc2ccccc2[nH]1)[C@H]1CCC[C@@H](NCc2ccc3nc(C)oc3c2)C1` [Compound 530, N-ethyl-N-((1S,3R)-3-(((2-methylbenzo[d]oxazol-6-yl)methyl)amino)cyclohexyl)-1H-benzo[d]imidazole-2-carboxamide], the IC50 was under 100 nM.
